Data as given in ChEMBL document CHEMBL4196216, “Dinghupeptins A-D, Chymotrypsin Inhibitory Cyclodepsipeptides Produced by a Soil-Derived Streptomyces” (J Nat Prod, 2018).
Activity calls are given as the source filed them. The calls are words filed in the database; no cut-off is given here. Numbered stars: 1 amine (or outer) side, 2 acyl side, 3 side chain; on linkers, the order of the positions; unused ones are H or OH. Bridge positions count the residues as written; N and C are the ends. Square brackets hold non-standard residues; d marks the D form. Peptide text beside a SMILES is read from it. * marks the point of attachment. X1 = CO[C@@H]1CC[C@@H](C(=O)[*:2])N1[*:1]; NMeY = CN[C@@H](Cc1ccc(O)cc1)C(=O)O; Tigloyl = C/C=C(\C)C(=O)*; NHCH2CH2OH = OCCN*

What was measured:
[1] = test system: HeLa; test: Growth inhibition of human HeLa cells up to 50 uM after 72 hrs by MTT assay; type: functional
[2] = test system: HeLa; test: Cytotoxicity against human HeLa cells after 72 hrs by MTT assay; type: functional, cell-based
[3] = test system: MCF7; test: Cytotoxicity against human MCF7 cells after 72 hrs by MTT assay; type: functional, cell-based
[4] = test system: A549; test: Cytotoxicity against human A549 cells after 72 hrs by MTT assay; type: functional, cell-based
[5] = test system: A549; test: Growth inhibition of human A549 cells up to 50 uM after 72 hrs by MTT assay; type: functional
[6] = target: Trypsin (Sus scrofa) (UniProt P00761); test: Inhibition of porcine pancreas trypsin up to 100 uM using N-alpha-benzoyl-DL-Arg-p-nitroanilide hydrochloride as substrate incubated for 15 mins followed by substrate addition measured every 30 secs
[7] = test system: MCF7; test: Growth inhibition of human MCF7 cells up to 50 uM after 72 hrs by MTT assay; type: functional
[8] = target: Pancreatic elastase (Sus scrofa) (UniProt P08419+P00772); test: Inhibition of porcine pancreas elastase up to 100 uM using N-succinyl-Ala-Ala-Ala-p-nitroanilide as substrate incubated for 15 mins followed by substrate addition measured every 30 secs; type: protein assay
[9] = target: Chymotrypsinogen A (Bos taurus) (UniProt P00766); test: Inhibition of bovine pancreas alpha-chymotrypsin up to 100 uM using N-succinyl-Gly-Gly-Phe-p-nitroanilide as substrate incubated for 15 mins followed by substrate addition measured every 30 secs
[10] = target: Chymotrypsinogen A (Bos taurus) (UniProt P00766); test: Competitive inhibition of bovine pancreas alpha-chymotrypsin using N-succinyl-Gly-Gly-Phe-p-nitroanilide as substrate incubated for 15 mins followed by substrate addition measured every 30 secs by Dixon plot analysis
[11] = target: T1, Chymotrypsinogen A (Bos taurus, UniProt P00766); test: Inhibition of bovine pancreas alpha-chymotrypsin using N-succinyl-Gly-Gly-Phe-p-nitroanilide as substrate incubated for 15 mins followed by substrate addition measured every 30 secs
[12] = target: T1, Chymotrypsinogen A; test: Competitive inhibition of bovine pancreas alpha-chymotrypsin using N-succinyl-Gly-Gly-Phe-p-nitroanilide as substrate incubated for 15 mins followed by substrate addition measured every 30 secs by double-reciprocal Lineweaver-Burk plot analysis

Trypsin (Sus scrofa), sequence (P00761 whole entry): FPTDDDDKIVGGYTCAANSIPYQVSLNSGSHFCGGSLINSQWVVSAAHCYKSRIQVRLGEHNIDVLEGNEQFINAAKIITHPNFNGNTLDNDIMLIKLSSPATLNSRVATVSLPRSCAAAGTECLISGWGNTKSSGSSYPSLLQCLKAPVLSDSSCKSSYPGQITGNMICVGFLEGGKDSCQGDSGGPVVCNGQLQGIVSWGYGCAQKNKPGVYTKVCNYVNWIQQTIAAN

Compound	growth inhibition (GI) [1] [%]	Activity [2]	Activity [3]	Activity [4]	growth inhibition (GI) [5] [%]	inhibition [6]	growth inhibition (GI) [7] [%]	inhibition [8]	inhibition [9]	inhibition [10]	IC50 [11] [nM]	Ki [12] [nM]
C/C=C(\C)C(=O)N[C@@H](CCC(N)=O)C(=O)N[C@@H]1C(=O)N[C@@H](CCC(=O)NCCO)C(=O)N2CCC[C@H]2C(=O)N[C@@H](Cc2ccccc2)C(=O)N(C)[C@@H](Cc2ccc(O)cc2)C(=O)N[C@@H](C)C(=O)O[C@@H]1C (Tigloyl-QTE(NHCH2CH2OH)PF[NMeY]A; ester 2-C)	<30	inactive	inactive	inactive	<30	inactive	<30	inactive	inactive			
C/C=C(\C)C(=O)N[C@@H](CCC(N)=O)C(=O)N[C@@H]1C(=O)N[C@@H](CCC(=O)NCCO)C(=O)N[C@H]2CC[C@@H](OC)N(C2=O)[C@@H](Cc2ccccc2)C(=O)N(C)[C@@H](Cc2ccc(O)cc2)C(=O)N[C@@H](C)C(=O)O[C@@H]1C	<30	inactive	inactive	inactive	<30	inactive	<30	inactive		Active	1100	630
C/C=C(\C)C(=O)N[C@@H](CCC(N)=O)C(=O)N[C@@H]1C(=O)N[C@@H](CCC(=O)NCCO)C(=O)N2[C@H](OC)CC[C@H]2C(=O)N[C@@H](Cc2ccccc2)C(=O)N(C)[C@@H](Cc2ccc(O)cc2)C(=O)N[C@@H](C)C(=O)O[C@@H]1C (Tigloyl-QTE(NHCH2CH2OH)[X1]F[NMeY]A; ester 2-C)	<30	inactive	inactive	inactive	<30	inactive	<30	inactive			23100	
C/C=C(\C)C(=O)N[C@@H](CCC(N)=O)C(=O)N[C@@H]1C(=O)N[C@@H](CCC(=O)NCCO)C(=O)N[C@H]2CC[C@@H](O)N(C2=O)[C@@H](Cc2ccccc2)C(=O)N(C)[C@@H](Cc2ccc(O)cc2)C(=O)N[C@@H](C)C(=O)O[C@@H]1C	<30	inactive	inactive	inactive	<30	inactive	<30	inactive			2100	
